Results taken from US20250049904A1, “IMMUNOSTIMULATORY COMPOSITIONS” (VICTORIA LINK LIMITED, priority 2021, published 2025).
Entries after “also recorded” stand apart in the source; their conditions may differ.

Key:
Format in all cases: in vivo, C57BL/6 mice
[1] = system: tissue-resident memory T cells (TRM cells); test: LPX-mRNA vaccination of mice i.v.; antigen-specific TRM, TEM and TCM cells in liver and spleen by flow cytometry
Protocol: FIG. 1 provides a graphical representation showing that LPX-mRNA vaccines containing CI058 induce high levels of liver TRM cells. Liposomes were prepared with DOTMA and DOPE lipids and complexed with mRNA encoding chicken ovalbumin (OVA) to give vaccine LPX-mOVA. Additional vaccines were prepared by including either the prototypical NKT cell agonist α-GalCer (LPX-mOVA-α-GalCer) or the derivative CI058, which has BODIPY attached via an —S in the 6 position of the galactose (LPX-mOVA-CI058). Recipient C57BL/6 mice were transferred 50,000 naïve OVA-specific TCR-transgenic CD8+ T cells (OT-I cells) to enhance the precursor frequency of antigen-specific T cells to aid detection of vaccine-induced responses. A day later, groups of mice (n=5-6) were vaccinated intravenously (0.08 nmol) with the different vaccines; a naive mouse was left untreated. After 28 days, mice were killed and liver and spleen collected for analysis of induced T cell response by flow cytometry. Antigen-specific cells were identified using fluorescent MHC/peptide tetramers containing the targeted CD8^+ T cell epitope recognised by OT-I cells, and expression of Ly5.1, a congenic marker expressed by the OT-I mouse strain and not recipient C57BL/6 mice. The antigen-specific cells were further characterised as resident-memory T cells (TRM cells; CD8^+ Ly5.1^+ […] CD62L^low cells), effector memory T cells (TEM cells; CD8^+ Ly5.1^+ CD44^+ CD69^− CD62L^low cells) or central memory cells (TCM cells; CD8^+ Ly5.1^+ CD44^+ CD69^− CD62Lhigh cells). (A) Percentages of TRM, TEM and TCM OT-I cells in each treatment group in liver. Mean±SEM for each T cell subset are shown; statistical analysis relates only to pairwise comparisons of the percentage of TRM cells between the treatment groups. Black bars: TRM cells; white bars: TEM cells; grey bars: TCM cells. *P<0.05, **P<0.01, ***P<0.001, ****P<0.0001. One-way ANOVA. (B) Percentages of RM, TEM and TCM OT-I cells in each treatment group in spleen. (C) Mean number of TRM cells in liver for each treatment group (±SEM); dots represent individual mice. Black bars: TRM cells; white bars: TEM cells; grey bars: TCM cells. *P<0.05, **P<0.01, ***P<0.001, ****P<0.0001. One-way ANOVA.
Dose response of LPX-mOVA-α-GalCer versus LPX-mOVA-CI058 vaccines. Analysis was in C57BL/6 mice, without transfer of OT-I cells, so endogenous T cell responses were monitored on a normal T cell repertoire. Groups of 5 mice were used, and vaccines were administered intravenously. After 28 days, mice were killed and liver tissue collected for analysis of induced T cell response by flow cytometry. Antigen-specific cells were identified using fluorescent MHC/peptide tetramers, and further characterised as resident-memory T cells (TRM CD8^+ CD44^+ CD69^+ CXCR6^+ CD49a^+ CD62L^low cells), effector memory T cells (TEM CD8^+ CD44^+ CD69^− KLRG1^+ CXCR3^+ CD62L^low cells) or central memory cells (TCM CD8^+ CD44^+ CD69^− CD62L^high cells). At the same timer, NKT cells in the liver were also evaluated using fluorescent CD1d/α-GalCer tetramers. These were characterised for expression of different markers of activation, including PD-1 (only the latter is shown here). White circles: LPX-mOVA-α-GalCer; black circles: LPX-mOVA-CI058. (A) Graph showing mean number of TRM cells in liver for each treatment group (±SEM) overdose range. ****P<0.0001. (B) Graph showing mean level of expression of the “invariant” NKT cell-associated TCR for each treatment group (±SEM), defined as level of binding of fluorescent CD1d/α-GalCer tetramers and expressed as mean fluorescence index. ****P<0.0001 (C) Graph showing mean level of expression of PD-1 on NKT cells for each treatment group (±SEM). **P<0.01
To examine whether a prodrug mechanism is involved in enhanced TRM cell induction, LPX-mOVA-CI058 vaccines were compared to vaccines containing different NKT cell agonist prodrugs. […]

NKT cells in the liver = test: NKT cell phenotype in the liver after LPX-mRNA vaccination (CD1d/α-GalCer tetramer binding, PD-1); conditions: correlates with dose
Protocol: Dose response of LPX-mOVA-α-GalCer versus LPX-mOVA-CI058 vaccines. Analysis was in C57BL/6 mice, without transfer of OT-I cells, so endogenous T cell responses were monitored on a normal T cell repertoire. Groups of 5 mice were used, and vaccines were administered intravenously. After 28 days, mice were killed and liver tissue collected for analysis of induced T cell response by flow cytometry. […] At the same timer, NKT cells in the liver were also evaluated using fluorescent CD1d/α-GalCer tetramers. […] (B) Graph showing mean level of expression of the “invariant” NKT cell-associated TCR for each treatment group (±SEM), defined as level of binding of fluorescent CD1d/α-GalCer tetramers and expressed as mean fluorescence index. ****P<0.0001 (C) Graph showing mean level of expression of PD-1 on NKT cells for each treatment group (±SEM). **P<0.01
Lymphocytes were stained with monoclonal antibodies for: CD8a (53-6.7), Ly5.1 (A20), CD44 (IM7), CXCR6 (SA051D1), CX3CR1 (SA011F11), from BioLegend (Australian Biosearch, Karrinyup, WA. Australia), and CD62L (MEL-14) and CD69 (H1.2F3), from eBioscience (Jomar Life Research, Scoresby, VIC, Australia). […] Single-color positive control samples were used to adjust compensation and cells were analyzed by flow cytometry on a LSR Fortessa (BD Biosciences), or LSRII SORP using Flowjo software (Tree Star Inc.).

[2] = system: tissue-resident memory T cells (TRM cells); test: LPX-mRNA vaccination of mice i.v.; antigen-specific TRM, TEM and TCM cells in liver and spleen by flow cytometry; remark: listed apart in the source

With `CCCCCCCCCCCCCCCCCCCCCCCCCC(=O)N[C@@H](CO[C@H]1O[C@H](CSCC(=O)Nc2ccc(C3=C4C(C)=CC(C)=[N+]4[B-](F)(F)n4c(C)cc(C)c43)cc2)[C@H](O)[C@H](O)[C@H]1O)[C@H](O)[C@H](O)CCCCCCCCCCCCCC` [CI058, (2S,3S,4R)-1-(6-Deoxy-6-((2-((4-(5,5-difluoro-1,3,7,9-tetramethyl-5H-4λ4,5λ4-dipyrrolo[1,2-c:2′,1′-f][1,3,2]diazaborinin-10-yl)phenyl)amino)-2-oxoethyl)thio)-α-D-galactopyranosyloxy)-2-hexacosanoylamino-3,4-octadecandiol] as the compound, how does the “overall level of T cell accumulation in liver” value ([1]; LPX vaccines with vs without CI058) read?
Its value is “higher overall levels of T cell accumulation in liver”.

What about the “accumulation (population size) of TRM cells in liver” value ([1]; LPX-mOVA vaccines i.v., 28-30 days, compared to vaccines with α-GalCer or without agonist) of the same compound?
Its value is “significantly larger populations of TRM cells in the liver tissue; also recorded: significantly enhanced populations of liver TRM cells; also recorded: also enhanced”.

And the “proportion of TRM cells among antigen-specific T cells in liver and spleen” value ([1]; LPX-mOVA vaccines i.v., OT-I cell transfer, 28 days after vaccination)?
Its value is “enhanced in both tissues, although is consistently more pronounced in liver; also recorded: significantly biased towards TRM cells”.

What about the “peak level of liver TRM cells in dose response” value ([1]; LPX-mOVA-CI058 vs LPX-mOVA-α-GalCer, no OT-I transfer, day 28) of the same compound?
The value was “significantly higher than achieved with vaccines with α-GalCer”.

What about the “lower dose giving parity in liver TRM cell levels with α-GalCer vaccine” value ([1]; dose response, LPX-mOVA-CI058 vs LPX-mOVA-α-GalCer, no OT-I transfer, day 28) of the same compound?
The value was 10 fold.

And the “liver TRM cell induction, vaccine encoding malaria antigen RPL6” value ([1]; endogenous T cell response, no T cell transfer, 30 days)?
The value was “enhancing liver TRM cell induction”.

And the “expression of NKT cell-associated invariant TCR in liver” value (NKT cells in the liver; CD1d/α-GalCer tetramers)?
Its value is “significantly reduced expression”.

What about the “expression of PD-1 on liver NKT cells” value (NKT cells in the liver) of the same compound?
Its value is “significantly increased expression”.

What about the “overall TRM cell accumulation in the liver” value ([2]; agonist in LPX-mOVA vaccine, OT-I transfer, liver 30 days later) of the same compound?
Its value is “significantly better at inducing accumulation of TRM cells”.

What about the “proportion of liver TRM among all vaccine-induced antigen-specific T cells (TRM cell-inducing capability)” value ([2]; agonist in LPX-mOVA vaccine, OT-I transfer, liver 30 days later, relative to α-GalCer vaccine) of the same compound?
The value was “superior liver TRM cell-inducing agonist”.

What about the “proportion of antigen-specific TRM cells, liver vs spleen” value ([2]; malaria model vaccination, LPX-mOVA with CI058, 30 days) of the same compound?
Its value is “significant changes in proportion of antigen-specific TRM cells, which is more pronounced in liver compared to spleen”.
